SMILES strings stand for the structures. Calls of active or inactive are those of the source. No cut-off for these calls is given here. Where only a bound is given, the exact number is not on record here.

Holding throughout (assay type): functional, cell-based
In assay [1] the test system is WI-38. In words: Cytotoxicity was evaluated against WI38 tumor cell lines; Slightly active. Particulars: Homo sapiens.
Assay [2] has as its system B16. The experiment in a line: Cytotoxicity was evaluated against B16 tumor cell lines; Slightly active. As to conditions: Mus musculus.
The test system of assay [3] is CCRF-CEM. In words: Cytotoxicity was evaluated against CEM tumor cell lines; Slightly active. As to conditions: Homo sapiens.
For assay [4], the system named is WIL2. In words: Cytotoxicity was evaluated against WIL2 tumor cell lines; Slightly active. As to conditions: Homo sapiens.
Assay [5] relates to NCI-H596. The experiment in a line: Cytotoxicity was evaluated against H596 tumor cell lines; Slightly active. Particulars: Homo sapiens.
The subject of assay [6] is A549. The experiment in a line: Cytotoxicity was evaluated against A549 tumor cell lines; Slightly active. Particulars: Homo sapiens.
Assay [7] relates to NCI-H292. The experiment in a line: Cytotoxicity was evaluated against H292 tumor cell lines; Slightly active. Particulars: Homo sapiens.
In assay [8] the test system is K562. In words: Cytotoxicity was evaluated against K562 tumor cell lines; Slightly active. As to conditions: Homo sapiens.
For assay [9], the system named is NIH3T3. The experiment in a line: Cytotoxicity was evaluated against NIH3T3 tumor cell lines; Slightly active. As to conditions: Mus musculus.
Assay [10] has as its system MOLT-4. In words: Cytotoxicity was evaluated against Molt-4 tumor cell lines; Slightly active. Particulars: Homo sapiens.
Assay [11] concerns HL-60. In words: Cytotoxicity was evaluated against HL-60 tumor cell lines; Slightly active. Particulars: Homo sapiens.
Assay [12] has as its system L1210. The experiment in a line: Cytotoxicity was evaluated against L1210 tumor cell lines; Slightly active. As to conditions: Mus musculus.
The next assay relates to Jurkat. The experiment in a line: In vitro test for antitumor activity against human Jurkat cell line using a formazan dye (MTT) conversion assay.
The test system of assay [13] is MCF7. The experiment in a line: Cytotoxicity was evaluated against MCF-7 tumor cell lines; Slightly active. Particulars: Homo sapiens.
For assay [14], the system named is L1210. In words: Cytotoxicity was evaluated against L1210 tumor cell lines; Inactive. Particulars: Mus musculus.
Assay [15] deals with K562. In words: Cytotoxicity was evaluated against K562 tumor cell lines; Inactive. Particulars: Homo sapiens.
For assay [16], the system named is NIH3T3. The experiment in a line: Cytotoxicity was evaluated against NIH3T3 tumor cell lines; Inactive. As to conditions: Mus musculus.
For assay [17], the system named is WI-38. The experiment in a line: Cytotoxicity was evaluated against WI38 tumor cell lines; Inactive. As to conditions: Homo sapiens.
Assay [18] has as its system MCF7. The experiment in a line: Cytotoxicity was evaluated against MCF-7 tumor cell lines; Inactive. As to conditions: Homo sapiens.
In assay [19] the test system is WIL2. The experiment in a line: Cytotoxicity was evaluated against WIL2 tumor cell lines; Inactive. As to conditions: Homo sapiens.
In assay [20] the test system is HL-60. The experiment in a line: Cytotoxicity was evaluated against HL-60 tumor cell lines; Inactive. Particulars: Homo sapiens.
Assay [21] deals with NCI-H596. The experiment in a line: Cytotoxicity was evaluated against H596 tumor cell lines; Inactive. As to conditions: Homo sapiens.
Assay [22] deals with B16. In words: Cytotoxicity was evaluated against B16 tumor cell lines; Inactive. Particulars: Mus musculus.
Assay [23] relates to NCI-H292. In words: Cytotoxicity was evaluated against H292 tumor cell lines; Inactive. As to conditions: Homo sapiens.
Assay [24] deals with CCRF-CEM. In words: Cytotoxicity was evaluated against CEM tumor cell lines; Inactive. As to conditions: Homo sapiens.
The test system of assay [25] is A549. The experiment in a line: Cytotoxicity was evaluated against A549 tumor cell lines; Inactive. Particulars: Homo sapiens.
In assay [26] the test system is MOLT-4. The experiment in a line: Cytotoxicity was evaluated against Molt-4 tumor cell lines; Inactive. Particulars: Homo sapiens.

As to `COc1cc2c(cc1OC)C(=O)/C(=C/c1cc(C)ccc1C)C2`, the Cytotoxicity result in the assay on WI-38 [1], with B16 [2], with CCRF-CEM [3], in the assay with WIL2 [4], with NCI-H596 [5] and in the assay on A549 [6] was “Weak activity” each time. In addition, the Cytotoxicity result in the assay on NCI-H292 [7], in the assay with K562 [8], with NIH3T3 [9], with MOLT-4 [10], in the assay on HL-60 [11] and with L1210 [12] was “Weak activity” in each case. Moreover, the Cytotoxicity result with MCF7 [13] is “Weak activity”. In the assay on Jurkat, the IC50 was 30.5 µM.
For the compound `COc1cc2c(cc1OC)C(=O)/C(=C/c1cccc([N+](=O)[O-])c1)C2`, the Cytotoxicity entry in the assay with WI-38 [1], in the assay on B16 [2], in the assay on CCRF-CEM [3], with WIL2 [4], in the assay on NCI-H596 [5] and in the assay on A549 [6] was “Weak activity” each time. The Cytotoxicity result in the assay on NCI-H292 [7], with K562 [8], in the assay with NIH3T3 [9], in the assay on MOLT-4 [10], with HL-60 [11] and with L1210 [12] was “Weak activity” throughout. For the same compound, the Cytotoxicity entry in the assay with MCF7 [13] is “Weak activity”. This compound gave a 50% inhibitory concentration (IC50) in the assay with Jurkat of 22 µM.
With `COc1cc2c(cc1OC)C(=O)/C(=C/c1ccc(N)cc1)CC2`, the Cytotoxicity result in the assay with WI-38 [1], in the assay on B16 [2], in the assay with CCRF-CEM [3], in the assay on WIL2 [4], in the assay with NCI-H596 [5] and in the assay with A549 [6] was “Weak activity” throughout. For the same compound, the Cytotoxicity result with NCI-H292 [7], in the assay with K562 [8], in the assay on NIH3T3 [9], in the assay on MOLT-4 [10], in the assay with HL-60 [11] and with L1210 [12] was “Weak activity” each time. Besides, the Cytotoxicity result in the assay on MCF7 [13] is “Weak activity”. In addition, the midpoint of inhibition with Jurkat, the IC50, lay at 40 µM.
As to `COc1ccc(/C=C2\CCc3cc(OC)c(OC)cc3C2=O)cc1OC`, the Cytotoxicity result with L1210 [14], in the assay with K562 [15], with NIH3T3 [16], in the assay on WI-38 [17], in the assay with MCF7 [18] and in the assay with WIL2 [19] was “inactive” throughout. Further, the Cytotoxicity entry with HL-60 [20], in the assay on NCI-H596 [21], in the assay with B16 [22], in the assay with NCI-H292 [23], in the assay with CCRF-CEM [24] and in the assay with A549 [25] was “inactive” throughout. In addition, the Cytotoxicity entry with MOLT-4 [26] is “inactive”. Moreover, the half-maximal inhibitory concentration (IC50) in the assay with Jurkat was above 50 µM.
Take `COc1cc2c(cc1OC)C(=O)/C(=C/c1ccc(O)c(C(=O)O)c1)CC2`: the Cytotoxicity result in the assay on L1210 [14], with K562 [15], in the assay with NIH3T3 [16], in the assay with WI-38 [17], in the assay with MCF7 [18] and with WIL2 [19] was “inactive” throughout. For the same compound, the Cytotoxicity entry with HL-60 [20], in the assay on NCI-H596 [21], in the assay with B16 [22], in the assay on NCI-H292 [23], with CCRF-CEM [24] and in the assay on A549 [25] was “inactive” in each case. Also, the Cytotoxicity result in the assay with MOLT-4 [26] was “inactive”. Moreover, the IC50 with Jurkat was above 50 µM.
Consider `COc1ccc2c(c1)C(=O)/C(=C/c1cc(C)c(O)c(C)c1)C2`, for which the Cytotoxicity entry in the assay with L1210 [14], in the assay on K562 [15], in the assay with NIH3T3 [16], in the assay on WI-38 [17], in the assay on MCF7 [18] and with WIL2 [19] was “inactive” throughout. The Cytotoxicity entry with HL-60 [20], in the assay with NCI-H596 [21], in the assay on B16 [22], in the assay on NCI-H292 [23], with CCRF-CEM [24] and in the assay on A549 [25] was “inactive” throughout. Besides, the Cytotoxicity result in the assay with MOLT-4 [26] is “inactive”. The compound further showed a half-inhibitory concentration (IC50) in the assay on Jurkat above 50 µM.
On to `COc1cc2c(c([N+](=O)[O-])c1OC)C(=O)/C(=C/c1cc(C)c(O)c(C)c1)C2`, for which the Cytotoxicity result with L1210 [14], in the assay with K562 [15], with NIH3T3 [16], in the assay on WI-38 [17], with MCF7 [18] and in the assay with WIL2 [19] was “inactive” throughout. Further, the Cytotoxicity result in the assay on HL-60 [20], in the assay on NCI-H596 [21], in the assay with B16 [22], with NCI-H292 [23], with CCRF-CEM [24] and with A549 [25] was “inactive” each time. The Cytotoxicity result in the assay with MOLT-4 [26] is “inactive”. Besides, in the assay on Jurkat, the concentration for half-maximal inhibition (IC50) is above 50 µM.
For `COc1cc2c(cc1OC)C(=O)/C(=C/c1c(OC)cccc1OC)CC2`, the Cytotoxicity result with L1210 [14], with K562 [15], in the assay on NIH3T3 [16], in the assay on WI-38 [17], with MCF7 [18] and in the assay on WIL2 [19] was “inactive” in each case. For the same compound, the Cytotoxicity result with HL-60 [20], in the assay with NCI-H596 [21], in the assay with B16 [22], with NCI-H292 [23], in the assay on CCRF-CEM [24] and in the assay with A549 [25] was “inactive” in each case. Besides, the Cytotoxicity entry with MOLT-4 [26] was “inactive”. This compound also had an IC50 with Jurkat above 50 µM.
Turning to `Cc1cc(/C=C2\Cc3cc4c(cc3C2=O)OCO4)cc(C)c1O`, the Cytotoxicity result with L1210 [14], with K562 [15], in the assay with NIH3T3 [16], with WI-38 [17], with MCF7 [18] and in the assay on WIL2 [19] was “inactive” in each case. The Cytotoxicity entry with HL-60 [20], in the assay with NCI-H596 [21], in the assay on B16 [22], with NCI-H292 [23], in the assay on CCRF-CEM [24] and with A549 [25] was “inactive” each time. In addition, in the assay on MOLT-4 [26], the Cytotoxicity result is “inactive”. Further, the IC50 with Jurkat is above 50 µM.
In the case of `COc1ccccc1/C=C1\CCc2cc(OC)c(OC)cc2C1=O`, the Cytotoxicity result with L1210 [14], with K562 [15], in the assay with NIH3T3 [16], in the assay with WI-38 [17], with MCF7 [18] and in the assay on WIL2 [19] was “inactive” each time. For the same compound, the Cytotoxicity entry in the assay with HL-60 [20], in the assay on NCI-H596 [21], in the assay with B16 [22], in the assay with NCI-H292 [23], in the assay on CCRF-CEM [24] and with A549 [25] was “inactive” throughout. Besides, the Cytotoxicity entry in the assay on MOLT-4 [26] is “inactive”. Also, the IC50 with Jurkat was above 50 µM.
In the case of `COc1ccc2c(c1)C/C(=C\c1cc(C)c(O)c(C)c1)C2=O`, the Cytotoxicity result with L1210 [14], with K562 [15], with NIH3T3 [16], with WI-38 [17], with MCF7 [18] and with WIL2 [19] was “inactive” throughout. In addition, the Cytotoxicity entry in the assay on HL-60 [20], in the assay on NCI-H596 [21], with B16 [22], with NCI-H292 [23], in the assay with CCRF-CEM [24] and in the assay with A549 [25] was “inactive” in each case. Also, the Cytotoxicity entry in the assay with MOLT-4 [26] was “inactive”. In the assay on Jurkat, this compound had a half-maximal inhibitory concentration (IC50) above 50 µM.
For the compound `COc1ccc(/C=C2\CCc3cc(OC)c(OC)cc3C2=O)cc1`, the Cytotoxicity result with L1210 [14], in the assay on K562 [15], in the assay on NIH3T3 [16], with WI-38 [17], in the assay on MCF7 [18] and in the assay with WIL2 [19] was “inactive” in each case. Besides, the Cytotoxicity result in the assay with HL-60 [20], with NCI-H596 [21], in the assay with B16 [22], with NCI-H292 [23], in the assay on CCRF-CEM [24] and in the assay with A549 [25] was “inactive” in each case. Also, in the assay on MOLT-4 [26], the Cytotoxicity entry is “inactive”. In the assay on Jurkat, this compound gave a half-inhibitory concentration (IC50) above 50 µM.

The record behind these values is ChEMBL document CHEMBL1133412, “Rational design, synthesis and structure-activity relationships of antitumor (E)-2-benzylidene-1-tetralones and (E)-2-benzylidene-1-indanones” (Bioorg Med Chem Lett, 2000).
